Consider one compound from patent publication US20230338396A1, “CANNABIDIOL AS A T[…] FOR COVID-19” (AUGUSTA UNIVERSITY RESEARCH INSTITUTE, INC., priority 2020, published 2023).

Entries after “also recorded” stand apart in the source; their conditions may differ.

The subject of data set [1] is T cells. The data set is described as follows: CBD inhalers in healthy young and older subjects, T cells. The format is in vivo. The conditions noted are these: CBD inhaler, 20 mg of CBD for 120 min.
Data set [2] deals with Poly(I:C)-induced ARDS. The data set is classed as in vivo, C57BL/6 mice. As to conditions: CBD 5 mg/kg intraperitoneal.
Data set [3] relates to Acute Lung Injury (ALI). The data set is described as follows: Inhaled CBD in Acute Lung Injury (ALI)/ARDS murine model with Poly(I:C). The format is in vivo.
For data set [4], the system named is Poly(I:C)-induced ARDS. The data set is described as follows: Poly(I:C)-induced ARDS in mice, apelin modulation by CBD (Example 2). The data set is classed as in vivo, C57Bl/6 mice. As to conditions: CBD 5 mg/kg intraperitoneal, 3 doses, after Poly(I:C).
Where [5] appears, read: inhaled CBD compared to CBD injection.
Setting [6] is: inhaled CBD, Poly(I:C)-treated mice.

In the case of `C=C(C)[C@@H]1CCC(C)=C[C@H]1c1c(O)cc(CCCCC)cc1O` [CBD, cannabidiol], the “effects on T cells frequencies or functionality” value in data set [1] was “no negative effects”. Besides, in data set [2] (3 doses, after Poly(I:C)), the “expression of IL-6 in lung (immunohistochemistry)” value is given as “reduced the expression of IL-6”; the “frequencies of neutrophils in the lung (immunohistochemistry)” value is “lowered the frequencies of neutrophils in the lung”; the “inflammatory indices overall (flow cytometry of blood and lung)” value was “reversed all these inflammatory indices and partially re-established homeostasis”; the “lung structural damage and symptoms (inflammatory infiltrate, fibrosis, hypertrophy, pulmonary edema; H&E histology)” value was “improves lung structure and function; also recorded: totally or partially reversed and returned to the level and condition of the normal”. Besides, in data set [2] (blood), the “level of proinflammatory cytokines in blood (IL-6, IFNγ, TNFα)” value is “reducing the number of neutrophils and monocytes as well as the level of proinflammatory cytokines significantly”; the “number of neutrophils and monocytes in blood (flow cytometry)” value is “reducing the number of neutrophils and monocytes”. Also, the “lymphocyte frequencies in blood (flow cytometry)” value in data set [2] (blood, p<0.01) is “enhanced the rate of lymphocyte frequencies markedly”. In addition, the “number of infiltrating neutrophils and macrophages in lung (flow cytometry)” value in data set [2] (lung) was “downregulated the number of infiltrating neutrophils and macrophages markedly”. Moreover, in data set [2] (lung, p<0.05), the “level of cytokines in lung (flow cytometry)” value is listed as “reduced the level of cytokines significantly”. Moreover, in data set [3] (setting [5]), the “IL-6 production in lung tissue” value is “further down regulate IL-6 production” and the activated infiltrating leukocytes result is given as “decreased activated infiltrating leukocytes”. Further, in data set [3] (setting [6]), the “destruction of lung (H&E)” value is on record as “able to prevent further destruction of lung”; the “frequencies of T cells (lymphopenia) in peripheral blood and lung tissue” value is on record as “able to reinstate the frequencies of T cells”. In data set [4] (blood), the “T cells in whole blood (flow cytometry)” value is “returned decreased T cells and increased neutrophils towards the normal level”; the “apelin expression in blood (flow cytometry)” value is recorded as “normalized the expression level of apelin in the blood; also recorded: enhanced expression of apelin in the blood”; the “neutrophils in whole blood (flow cytometry)” value is “returned decreased T cells and increased neutrophils towards the normal level”. In data set [4] (lung), the “apelin expression in lung tissue (immunofluorescence)” value is recorded as “normalized the apelin expression in the lung tissues; also recorded: increased apelin expression towards control levels” and the “pathological features of lung (histology, Masson's trichrome)” value is recorded as “completely or partially abolished”.
